From PubChem BioAssay AID284 (DTP/NCI, 2004)
“And” between values parts separate entries of the source, which are not always exact repeats. Identical values can stand only once. Toxic doses and inconclusive results are not listed.

System: BDF1 mice, L1210/MTX-resistant leukemia ip, survival T/C
Assay: NCI In Vivo Anticancer Drug Screen. Data for tumor model L1210 Leukemia resistant to Methotrexate; NSC 740 (intraperitoneal) in B6D2F1 (BDF1) mice
Conditions: endpoint: mean survival time, higher = longer survival
Experimental: The antitumor activity of compounds was measured in mice bearing transplantable tumors. Survival or tumor size were measured and the results are expressed as the measurement made in the treated group (T) divided by the measurement made in the vehicle treated control group (C). The tumor model used in this assay is L1210 Leukemia resistant to Methotrexate; NSC 740 (intraperitoneal) in B6D2F1 (BDF1) mice

[1] = dose: 12.5 mg/kg/injection, schedule: Q01DX010 (ip), vehicle: saline
[2] = dose: 50.0 mg/kg/injection, schedule: Q01DX Z (ip), vehicle: saline
[3] = dose: 100.0 mg/kg/injection, schedule: Q01DX Z (ip), vehicle: saline
[4] = dose: 62.5 mg/kg/injection, schedule: Q01DX010 (ip), vehicle: saline
[5] = dose: 125.0 mg/kg/injection, schedule: Q01DX010 (ip), vehicle: saline
[6] = dose: 250.0 mg/kg/injection, schedule: Q01DX010 (ip), vehicle: saline
[7] = dose: 500.0 mg/kg/injection, schedule: Q01DX010 (ip), vehicle: saline
[8] = dose: 750.0 mg/kg/injection, schedule: Q01DX Z (ip), vehicle: saline
[9] = dose: 12.5 mg/kg/injection, schedule: Q01DX Z (ip), vehicle: saline
[10] = dose: 5.0 mg/kg/injection, schedule: Q01DX Z (ip), vehicle: carboxymethylcellulose (CMC)
[11] = dose: 10.0 mg/kg/injection, schedule: Q01DX Z (ip), vehicle: carboxymethylcellulose (CMC)
[12] = dose: 20.0 mg/kg/injection, schedule: Q01DX Z (ip), vehicle: carboxymethylcellulose (CMC)

Compound: Clc1ncnc2nc[nH]c12
- T/C (dose: 7.5 mg/kg/injection, schedule: Q01DX010 (ip), vehicle: saline): 90 % of control
- T/C (dose: 15.0 mg/kg/injection, schedule: Q01DX010 (ip), vehicle: saline): 90 % of control and 96 % of control
- T/C (dose: 30.0 mg/kg/injection, schedule: Q01DX010 (ip), vehicle: saline): 92 % of control and 100 % of control
- T/C (dose: 60.0 mg/kg/injection, schedule: Q01DX010 (ip), vehicle: saline): 96 % of control

Compound: CN(N=O)C(=O)NC(C=O)C(O)C(O)C(O)CO (stereo not given)
- T/C [1]: 100 % of control
- T/C [2]: 106 % of control
- T/C (dose: 100.0 mg/kg/injection, schedule: Q01DX010 (ip), vehicle: saline): 100 % of control
- T/C [3]: 97 % of control

Compound: CC(=O)N(C)C
- T/C [4]: 90 % of control and 98 % of control
- T/C (dose: 62.5 mg/kg/injection, schedule: Q01DX Z (ip), vehicle: saline): 106 % of control
- T/C [5]: 102 % of control
- T/C (dose: 125.0 mg/kg/injection, schedule: Q01DX Z (ip), vehicle: saline): 122 % of control
- T/C [6]: 93 % of control and 100 % of control
- T/C [7]: 93 % of control
- T/C (dose: 500.0 mg/kg/injection, schedule: Q01DX Z (ip), vehicle: saline): 114 % of control and 88 % of control
- T/C [8]: 88 % of control
- T/C (dose: 1000.0 mg/kg/injection, schedule: Q01DX Z (ip), vehicle: methylcellulose (MC)): 87 % of control

Compound: CN(N=O)C(N)=O
- T/C (dose: 5.0 mg/kg/injection, schedule: Q01DX010 (ip), vehicle: saline): 122 % of control
- T/C [9]: 105 % of control
- T/C (dose: 25.0 mg/kg/injection, schedule: Q01DX Z (ip), vehicle: saline): 101 % of control
- T/C [2]: 103 % of control

Compound: CN(C)C(=S)N=Nc1c(O)[nH]c2ccccc12
- T/C (dose: 2.5 mg/kg/injection, schedule: Q01DX Z (ip), vehicle: carboxymethylcellulose (CMC)): 110 % of control
- T/C [10]: 106 % of control
- T/C [11]: 115 % of control
- T/C [12]: 95 % of control
- T/C (dose: 50.0 mg/kg/injection, schedule: Q01DX Z (ip), vehicle: carboxymethylcellulose (CMC)): 124 % of control
- T/C (dose: 100.0 mg/kg/injection, schedule: Q01DX Z (ip), vehicle: carboxymethylcellulose (CMC)): 86 % of control

Compound: CC[C@]1(O)C[C@H]2CN(CCc3c([nH]c4ccccc34)[C@@](C(=O)OC)(c3cc4c(cc3OC)N(C=O)[C@H]3[C@@](O)(C(=O)OC)[C@H](OC(C)=O)[C@]5(CC)C=CCN6CC[C@]43[C@@H]65)C2)C1
- T/C (dose: 0.03 mg/kg/injection, schedule: Q01DX010 (ip), vehicle: saline): 94 % of control
- T/C (dose: 0.06 mg/kg/injection, schedule: Q01DX010 (ip), vehicle: saline): 106 % of control
- T/C (dose: 0.12 mg/kg/injection, schedule: Q01DX010 (ip), vehicle: saline): 95 % of control
- T/C (dose: 0.25 mg/kg/injection, schedule: Q01DX010 (ip), vehicle: saline): 89 % of control

Compound: CCOC(N)=O
- T/C [4]: 87 % of control
- T/C [5]: 98 % of control
- T/C (dose: 188.0 mg/kg/injection, schedule: Q01DX Z (ip), vehicle: saline): 102 % of control
- T/C (dose: 250.0 mg/kg/injection, schedule: Q01DX Z (ip), vehicle: saline): 91 % of control
- T/C (dose: 375.0 mg/kg/injection, schedule: Q01DX Z (ip), vehicle: saline): 87 % of control and 99 % of control
- T/C [7]: 88 % of control
- T/C [8]: 93 % of control
- T/C (dose: 1500.0 mg/kg/injection, schedule: Q01DX Z (ip), vehicle: saline): 100 % of control

Compound: O=P1(N(CCCl)CCCl)NCCCO1 (stereo not given)
- T/C (dose: 11.3 mg/kg/injection, schedule: Q01DX010 (ip), vehicle: saline): 100 % of control
- T/C [9]: 98 % of control and 103 % of control
- T/C (dose: 22.5 mg/kg/injection, schedule: Q01DX Z (ip), vehicle: saline): 174 % of control
- T/C (dose: 45.0 mg/kg/injection, schedule: Q01DX010 (ip), vehicle: saline): 152 % of control
- T/C (dose: 90.0 mg/kg/injection, schedule: Q01DX010 (ip), vehicle: saline): 87 % of control
- T/C [3]: 88 % of control and 109 % of control
- T/C (dose: 200.0 mg/kg/injection, schedule: Q01DX Z (ip), vehicle: saline): 88 % of control and 103 % of control

Compound: Clc1ccc(C(c2ccccc2Cl)C(Cl)Cl)cc1 (stereo not given)
- T/C (dose: 62.5 mg/kg/injection, schedule: Q01DX Z (sc), vehicle: steriod suspending solution): 105 % of control
- T/C (dose: 125.0 mg/kg/injection, schedule: Q01DX Z (sc), vehicle: steriod suspending solution): 99 % of control
- T/C (dose: 250.0 mg/kg/injection, schedule: Q01DX Z (sc), vehicle: steriod suspending solution): 107 % of control
- T/C (dose: 500.0 mg/kg/injection, schedule: Q01DX Z (sc), vehicle: steriod suspending solution): 110 % of control

Compound: O=C(Nc1ccc(C2=NCCCN2)cc1)c1ccc(C(=O)Nc2ccc(C3=NCCCN3)cc2)cc1
- T/C (dose: 2.0 mg/kg/injection, schedule: Q01DX010 (ip), vehicle: other): 222 % of control and 252 % of control
- T/C (dose: 4.0 mg/kg/injection, schedule: Q01DX010 (ip), vehicle: other): 124 % of control and 242 % of control
- T/C [10]: 208 % of control
- T/C (dose: 7.5 mg/kg/injection, schedule: Q01DX Z (ip), vehicle: carboxymethylcellulose (CMC)): 122 % of control
- T/C (dose: 8.0 mg/kg/injection, schedule: Q01DX010 (ip), vehicle: other): 114 % of control and 93 % of control
- T/C [11]: 114 % of control
- T/C (dose: 15.0 mg/kg/injection, schedule: Q01DX Z (ip), vehicle: carboxymethylcellulose (CMC)): 100 % of control
- T/C (dose: 16.0 mg/kg/injection, schedule: Q01DX010 (ip), vehicle: other): 93 % of control
- T/C [12]: 98 % of control
- T/C (dose: 25.0 mg/kg/injection, schedule: Q01DX Z (ip), vehicle: carboxymethylcellulose (CMC)): 96 % of control

Compound: [I][Hg][CH2]C1COC([CH2][Hg][I])CO1 (stereo not given)
- T/C (dose: 0.8 mg/kg/injection, schedule: Q01DX Z (ip), vehicle: methylcellulose (MC)): 94 % of control
- T/C (dose: 1.6 mg/kg/injection, schedule: Q01DX Z (ip), vehicle: methylcellulose (MC)): 94 % of control
- T/C (dose: 6.25 mg/kg/injection, schedule: Q01DX010 (ip), vehicle: saline): 101 % of control
- T/C [1]: 103 % of control

Compound: CCCSc1ncnc2nc[nH]c12
- T/C (dose: 0.5 mg/kg/injection, schedule: Q01DX Z (ip), vehicle: other): 103 % of control
- T/C (dose: 2.0 mg/kg/injection, schedule: Q01DX Z (ip), vehicle: other): 93 % of control
- T/C (dose: 4.0 mg/kg/injection, schedule: Q01DX Z (ip), vehicle: other): 93 % of control
- T/C (dose: 31.3 mg/kg/injection, schedule: Q01DX010 (ip), vehicle: saline): 104 % of control
- T/C [4]: 95 % of control
- T/C (dose: 87.5 mg/kg/injection, schedule: Q01DX Z (ip), vehicle: other): 100 % of control
- T/C [5]: 90 % of control
- T/C (dose: 175.0 mg/kg/injection, schedule: Q01DX Z (ip), vehicle: other): 88 % of control
- T/C [6]: 88 % of control

Compound: O=c1[nH]c(=O)n(C2CC(O)C(CO)O2)cc1F (stereo not given)
- T/C (dose: 40.0 mg/kg/injection, schedule: Q01DX Z (ip), vehicle: other): 118 % of control
- T/C (dose: 80.0 mg/kg/injection, schedule: Q01DX Z (ip), vehicle: other): 98 % of control
- T/C (dose: 160.0 mg/kg/injection, schedule: Q01DX Z (ip), vehicle: other): 102 % of control

Compound: C[n+]1c2ccccc2nc2c(N)cc(N)cc21
- T/C (dose: 3.2 mg/kg/injection, schedule: Q01DX Z (ip), vehicle: other): 101 % of control and 110 % of control
- T/C (dose: 6.3 mg/kg/injection, schedule: Q01DX Z (ip), vehicle: other): 116 % of control and 107 % of control
- T/C (dose: 8.0 mg/kg/injection, schedule: Q01DX010 (ip), vehicle: saline): 122 % of control
- T/C (dose: 12.0 mg/kg/injection, schedule: Q01DX010 (ip), vehicle: saline): 114 % of control
- T/C (dose: 12.5 mg/kg/injection, schedule: Q01DX Z (ip), vehicle: other): 103 % of control and 105 % of control
- T/C (dose: 18.0 mg/kg/injection, schedule: Q01DX010 (ip), vehicle: saline): 96 % of control

Compound: CCc1nc(N)nc(N)c1-c1ccc(Cl)cc1
- T/C (dose: 9.0 mg/kg/injection, schedule: Q01DX Z (ip), vehicle: carboxymethylcellulose (CMC)): 92 % of control
- T/C (dose: 18.0 mg/kg/injection, schedule: Q01DX Z (ip), vehicle: carboxymethylcellulose (CMC)): 96 % of control
- T/C (dose: 36.0 mg/kg/injection, schedule: Q01DX Z (ip), vehicle: carboxymethylcellulose (CMC)): 95 % of control
